Data: article PMC4346271 (Bioorganic & Medicinal Chemistry, 2015)

Columns and labels:
[1] = test system: panel of kinases; test: Kinase off-target screen, whole panel; format: binding; conditions: 10 μM; 97 kinases (Table S4)
[2] = test system: panel of GPCRs; test: GPCR off-target screen, whole panel; format: binding; conditions: 1 μM; selection of 24 GPCRs (Table S3)
[3] = biological target: hCB2R (Homo sapiens, UniProt P34972); test: hCB2R cAMP assay; format: cell-based; conditions: for agonist activity at the CB2R (in words): CHO cell cAMP assay
[4] = Mouse liver microsome; format: in vitro ADME; conditions: mouse liver microsomes, 37 °C, with NADPH
[5] = Solubility observations; format: physicochemical; conditions: in the vehicle (DMSO) or under the assay conditions

Sequence of hCB2R (P34972 whole entry): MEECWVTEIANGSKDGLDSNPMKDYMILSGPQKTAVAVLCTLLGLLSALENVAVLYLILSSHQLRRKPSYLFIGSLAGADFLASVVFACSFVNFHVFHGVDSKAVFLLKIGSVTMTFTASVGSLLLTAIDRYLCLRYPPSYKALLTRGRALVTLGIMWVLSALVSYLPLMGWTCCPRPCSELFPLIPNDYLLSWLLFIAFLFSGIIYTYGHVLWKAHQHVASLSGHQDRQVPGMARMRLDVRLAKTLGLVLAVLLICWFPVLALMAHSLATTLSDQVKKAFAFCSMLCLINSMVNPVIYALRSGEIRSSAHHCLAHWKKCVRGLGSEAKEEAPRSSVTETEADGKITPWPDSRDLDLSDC

## N#Cc1ccccc1CSc1nnc2c(n1)[nH]c1ccccc12 [Compound 7, 3-((2′-Cyanobenzyl)thio)-5H-[1,2,4]triazino[5,6-b]indole]
[1]
  binding with any of the kinases tested: no significant binding
[2]
  binding at any of the GPCRs tested: no significant binding
[3]
  EC50: 120 nM

## Sc1nnc2c(n1)[nH]c1ccccc12 [Compound 9, 5H-[1,2,4]Triazino[5,6-b]indole-3-thiol]
[3]
  agonist activity at the CB2R (in words): no detectable agonist activity

## Fc1ccccc1CSc1nnc2c(n1)[nH]c1ccccc12 [Compound 14, 3-((2′-Fluorobenzyl)thio)-5H-[1,2,4]triazino[5,6-b]indole]
[3]
  agonist activity at the CB2R (in words): no activity up to the highest concentrations tested

## CC(=O)n1c2ccccc2c2nnc(SCc3ccccc3C#N)nc21 [Compound 66, 2′(((5-Acetyl-5H-[1,2,4]triazino[5,6-b]indol-3-yl)thio)methyl)benzonitrile]
[3]
  agonist activity at the CB2R (in words): no detectable activity

## N#Cc1ccccc1CSc1nnc2c3ccccc3n(C(=O)c3ccccc3)c2n1 [Compound 72]
[4]
  MLM stability t1/2: no parent compound could be detected at the earliest time point

## CN(C)c1ccc(C(=O)n2c3ccccc3c3nnc(SCc4ccccc4C#N)nc32)cc1 [Compound 78]
[5]
  solubility (in words): extremely poorly soluble under the assay conditions
